Laboratory results reported in patent US11000529B2, “Human papilloma virus replication inhibitors” (Icosagen Cell Factory OÜ, priority 2015, dated 2021).
pIC50: −log10 of the molar value. “Also recorded” adds a separate entry of the source.

Experiments:
HPV18 [1] = test: HPV18 initial amplification replication assay in U2OS cells (Southern Blot); type: cell-based; conditions: for pIC50: 120 h, read-out: IC50 of HPV18 initial amplification; for inhibition of HPV18 initial amplification: HPV18 wt minicircle, 5 days, Southern Blot, relative to DMSO; for HPV18 replication after shRNA downregulation: 3 and 4 days after transfection, vs empty shRNA plasmid
Description: FIG. 2 Effect of the identified five compounds on HPV18 initial amplification. A: U2OS cells were transfected with HPV18 wt minicircle and grown in the presence of the compounds with indicated concentrations for 5 days. Genomic DNA was extracted, linearized, and digested with DpnI. HPV genome replication signals were detected using Southern Blot analyses and quantified with phosphoimager and expressed relative to vehicle control (DMSO). Approximate IC50 values are shown for each compound. Error-bars represent standard deviation from at least three independent experiment. B: U2OS cells were transfected with the expression vectors of HPV18 E1 and E2 proteins together with HPV18 URR (origin) minicircle plasmid. The cells were grown in the presence of the compounds with indicated concentrations for 24 or 48 hours. Genomic DNA was extracted, linearized and digested with DpnI. HPV URR replication signals were detected by Southern Blot analyses. DMSO serves as vehicle control and M 18URR serves as size marker.
(§1) Replication assay. The U2OS or U2OS-EBNA1 cells were transfected with 2 ug of HPV18 minicircle genome and lug of oriP plasmid (only in case of U2OS-EBNA1 cells). All the compounds were added to the media immediately after the transfection and media was changed on the third day. Replication signals were detected with Southern Blot method. Briefly, genomic DNA was extracted 3 and 4 days after the transfection with sh_RNAs or with the use of ABT-888 and 5 days after for analyses of the effects of HPV inhibitors w/wo CPT. DNA was digested with BglI and DpnI for analyses of HPV18 replication and with BstXI, ScaI and DpnI for analyses of HPV18 and oriP replication simultaneously. 3 ug of DNA was resolved in agarose gel, transferred to a nylon membrane (Membrane Solutions LLC) and hybridized with specific radioactively labeled probes. Signals were detected and quantified with Typhoon Trio+ phosphoimager (GE Healthcare) and exposed on an X-ray film (AGFA).
for compounds inhibiting initial amplification of HPV18 genome in U2OS cells. HT-screening was conducted with all the compounds in this library in 5 uM and 1 uM concentrations and it gave us 80 hits (approximately 5% of analyzed compounds). After validation of the hits on HPV18 wt genome, we found five compounds inhibiting initial amplification of HPV18 in U2OS cells (FIG. 1). To further characterize the compounds, we performed replication assay described in Example 1.

HPV18 [2] = test: HPV18 replication in U2OS-EBNA1 cells, compounds alone or with CPT; type: cell-based; conditions: 5 days; for synergistic effect together with CPT on HPV18 replication: U2OS-EBNA1, with 2 nM CPT
Experimental: FIG. 5 Synergistic effect between Camptothecin (CPT) and the identified five compounds. U2OS-EBNA1 cells were transfected with HPV18 wt and oriP plasmids and grown in the presence of indicated concentrations of the compounds alone or together with 2 nM CPT for 5 days. Genomic DNA was extracted, linearized and digested with DpnI. Both HPV18 and oriP replication signals were detected with Southern Blot and quantified by phosphoimager. […] Error-bars represent standard deviations from at least three independent experiments.
as §1
Synergistic effect of Campthotecin (CPT) and HPV18 replication inhibitors. CPT is a Topoisomerase I inhibitor that stabilizes entrapped Top1cc complexes to DNA. Since Tdp1 is responsible for cleaving entrapped Top1cc complexes from DNA, synergistic effect between CPT and Tdp1 inhibitors occurs. In the experiments shown in FIG. 5 we used U2OS cells constitutively expressing Epstein Barr virus (EBV) EBNA1 protein—U2OS-EBNA1. These cells allow to monitor HPV and EBNA1 supported oriP plasmid replication simultaneously. […] U2OS-EBNA1 cells were cotransfected with HPV18 genome and oriP plasmid and the cells were grown in the presence of various concentrations of the identified HPV inhibitors alone or together with 2 nM of CPT for 5 days, DMSO was used as vehicle control.

HPV18 [3] = test: Vegetative amplification of HPV18 in U2OS #1.13 cells, confluent; type: cell-based; conditions: U2OS #1.13, confluent, compounds added on 5th day for additional 7 days
Experimental: (§2) FIG. 3 Effect of compounds on stable maintenance and vegetative amplification of HPV18. A: U2OS #1.13 cells were grown in subconfluent conditions in the presence of the identified five compounds for 7 days. Genomic DNA was extracted, linearized and HPV replication signal was detected by Southern Blot and B: quantified by phosphoimager. C: U2OS #1.13 were seeded and grown for 5 days without splitting. On the 5th day indicated concentrations of compounds were added to the media and the cells were grown for additional 7 days without splitting. On the 12th day genomic DNA was extracted, linearized and HPV replication signal was detected by Southern Blot and D: quantified by phosphoimager. Error-bars represent standard deviations from at least two independent experiments.
If #1.13 is grown in confluent conditions for at least 5 days, vegetative amplification of HPV genome is turned on. We seeded equal amounts of cells onto plates and grew them for 5 days without splitting. On the 5th day various concentrations of compound were added and the cells were grown for additional 7 days (media was changed every two days throughout the experiment). HPV replication signal was detected by Southern Blot analyses and quantified with phosphoimager.

HPV18 [4] = test: Stable maintenance of HPV18 in U2OS #1.13 cells, subconfluent; type: cell-based; conditions: U2OS #1.13, subconfluent, 7 days; for HPV18 replication signal lost: compared to DMSO control
Experimental: as §2
Our U2OScell-based system is suitable for studying all three replication stages of various HPV subtypes. Stable maintenance phase could be monitored by maintaining HPV-positive cells in subconfluent conditions. We used HPV18 positive monoclonal U2OS cell-line #1.13 with viral copy number ˜2000. We grew the #1.13 cells in the presence of various concentration of compounds in subconfluent conditions (cells were split every three days) for 7 days. HPV18 replication signal was detected by Southern blot analyses and quantified with phosphoimager. About 50% of the signal was lost in case of compound 82269 compared to the DMSO control (FIG. 3, panel A, compare lanes 4-6 with lane 15 and panel B).

Tdp = Tdp (Homo sapiens, UniProt Q9NUW8); conditions: known from the literature; cited from earlier work
Sequence of Tdp (Q9NUW8 whole entry): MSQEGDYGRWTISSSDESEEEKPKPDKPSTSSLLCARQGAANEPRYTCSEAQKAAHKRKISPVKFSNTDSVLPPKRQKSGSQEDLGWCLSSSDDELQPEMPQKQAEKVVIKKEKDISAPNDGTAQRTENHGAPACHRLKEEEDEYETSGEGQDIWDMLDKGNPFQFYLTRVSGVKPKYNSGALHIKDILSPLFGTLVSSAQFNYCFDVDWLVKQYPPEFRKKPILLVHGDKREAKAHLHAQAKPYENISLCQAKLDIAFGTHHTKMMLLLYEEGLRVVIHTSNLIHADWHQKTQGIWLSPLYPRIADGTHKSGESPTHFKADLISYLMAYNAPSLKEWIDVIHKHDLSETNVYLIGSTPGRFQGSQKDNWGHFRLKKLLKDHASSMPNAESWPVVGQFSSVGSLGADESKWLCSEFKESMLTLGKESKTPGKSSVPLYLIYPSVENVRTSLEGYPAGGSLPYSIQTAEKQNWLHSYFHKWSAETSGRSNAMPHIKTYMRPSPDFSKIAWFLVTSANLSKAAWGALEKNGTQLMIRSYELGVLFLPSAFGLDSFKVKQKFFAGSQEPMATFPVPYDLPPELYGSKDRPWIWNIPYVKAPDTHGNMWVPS

PARP1 = test: Western Blot of PARP1 after shRNA in U2OS cells; type: cell-based
Description: (§3) FIG. 4 Involvement of Tdp1 and PARP1 in HPV18 initial amplification. A: U2OS cells were transfected with HPV18 wt minicircle and sh_Tdp1 plasmid. Genomic DNA was extracted 3 and 4 days after the transfection, linearized and digested with DpnI. HPV replication signal was detected with Southern Blot analyses and B: quantified with phosphoimager. C: Western Blot analyses showing downregulation of Tdp1 protein by shRNA. D: U2OS cells were transfected with HPV18 wt minicircle and sh_PARP1 plasmid. HPV replication signal was detected with Southern Blot analyses and E: quantified with phosphoimager. F: Western Blot analyses showing downregulation of PARP1 protein by shRNA. G: U2OS cells were transfected with HPV18 wt minicircle and grown for 3 and 4 days in the presence of different concentrations of PARP1 inhibitor ABT-888. HPV replication signal was detected with Southern Blot analyses and H: quantified with phosphoimager. Error-bars represent standard deviations from at least three independent experiments.
(§4) Western Blot. The cells were lysed with Laemmli buffer (4% SDS, 20% glycerol, 120 mM Tris-Cl (pH 6.8), and 200 mM DTT) and boiled for 10 minutes at 100° C. […] Tdp1 and PARP1 were detected with their specific antibodies from Santa Cruz Biotechnology: sc-365674 and sc-56197 respectively. Tubulin (used as loading control) was detected using Sigma Aldrich antibody T9026. […]

Tdp1 = test: Western Blot of Tdp1 after shRNA in U2OS cells; type: cell-based
Description: as §3, §4

## C[C@]1(c2nc3c(C(N)=O)cccc3[nH]2)CCCN1 [ABT-888, veliparib, reference compound]
HPV18 [1]; 3 and 4 days, various concentrations, vs DMSO
  HPV18 replication in presence of PARP1 inhibitor: HPV18 replication is decreased

## CC[C@@]1(O)C(=O)OCc2c1cc1n(c2=O)Cc2cc3ccccc3nc2-1 [CPT, Camptothecin, reference compound]
HPV18 [2]; U2OS-EBNA1, 2 nM
  HPV18 initial amplification, CPT alone: did not inhibit

## CSc1ncc2[nH]c(C(O)c3ccccc3)nc2n1 (stereo not drawn) [NSC82269]
HPV18 [3]
  effect on vegetative amplification of HPV18: clear concentration-dependent inhibition; also recorded: clearly inhibit
HPV18 [4]
  effect on stable maintenance of HPV18: clearly inhibit
  HPV18 replication signal lost: About 50%
HPV18 [1]
  pIC50: 4.22 to 5.60
  inhibition of HPV18 initial amplification: concentration-dependent inhibition
HPV18 [2]
  synergistic effect together with CPT on HPV18 replication: no synergistic effect; also recorded: does not

## Cc1cc(O)cc2c1[C@H]1CC[C@]3(C)C(=O)CC[C@H]3[C@H]1C=C2 [NSC 9782]
HPV18 [3]
  effect on vegetative amplification of HPV18: did not have any effect; also recorded: does not inhibit any of the later replication stages
HPV18 [4]
  effect on stable maintenance of HPV18: no significant reduction in signal; also recorded: does not inhibit any of the later replication stages
HPV18 [1]
  pIC50: 4.22 to 5.60
  inhibition of HPV18 initial amplification: concentration-dependent inhibition
HPV18 [2]
  synergistic effect together with CPT on HPV18 replication: clear concentration dependent synergistic effect; also recorded: clear synergistic inhibition

## C[C@]12CC[C@H]3[C@H](CCC4=CC(=O)CC[C@@]43C)[C@@H]1CC[C@@H]2C(=O)COS(=O)(=O)c1ccc(Br)cc1 [NSC 88915]
Tdp
  Tdp inhibition: known to inhibit Tdp
HPV18 [3]
  effect on vegetative amplification of HPV18: did not have any effect
HPV18 [4]
  effect on stable maintenance of HPV18: only inhibits stable maintenance phase
  HPV18 replication signal lost: about 70%
HPV18 [1]
  pIC50: 4.22 to 5.60
  inhibition of HPV18 initial amplification: concentration-dependent inhibition
HPV18 [2]
  synergistic effect together with CPT on HPV18 replication: clear concentration dependent synergistic effect; also recorded: clear synergistic inhibition

## CC(=O)OC1CCC2(C)C(CCC3C2CC(=O)C2(C)C3CC(N3CC3)C2C(C)=O)C1 (stereo not drawn) [NSC 109128]
HPV18 [3]
  effect on vegetative amplification of HPV18: almost completely abolished amplification; also recorded: clearly inhibit
HPV18 [4]
  effect on stable maintenance of HPV18: clearly inhibit
  HPV18 replication signal lost: about 70%
HPV18 [1]
  pIC50: 4.22 to 5.60
  inhibition of HPV18 initial amplification: concentration-dependent inhibition
HPV18 [2]
  synergistic effect together with CPT on HPV18 replication: clear concentration dependent synergistic effect; also recorded: clear synergistic inhibition

## shRNA_PARP1: PARP1 shRNA plasmid, SEQ ID NO: 2, expression under RNA polymerase III promoter U6 (DNA GGACTCGCTCCGGATGGCCTTCAAGAGAGGCCATCCGGAGCGAGTCC) [reference compound]
HPV18 [1]
  HPV18 replication after shRNA downregulation: inhibits HPV18 replication significantly
PARP1
  PARP1 expression: decreased

## shRNA_Tdp1: Tdp1 shRNA plasmid, SEQ ID NO: 1, expression under RNA polymerase III promoter U6 (DNA GCACGATCTCTCTGAAACAAACTCGAGTTTGTTTCAGAGAGATCGT) [reference compound]
HPV18 [1]
  HPV18 replication after shRNA downregulation: clear decrease in HPV18 replication
Tdp1
  Tdp1 expression: decreased significantly
